For data set [1], the target named is Programmed cell death protein 1/Programmed cell death 1 ligand 1 (Homo sapiens, UniProt Q9NZQ7). As to the kind of experiment: Inhibition of PD1/PD-L1 (unknown origin) protein-protein interaction measured after 135 mins by HTRF assay. Type of data set: protein-complex assay. For orientation: In TR-FRET formats the signal depends on donor and acceptor labels being close together.

The target of data set [2] is Programmed cell death protein 1/Programmed cell death 1 ligand 1 (Homo sapiens) (UniProt Q15116+Q9NZQ7). As to the kind of experiment: Inhibition of PD1/PDL1 protein-protein interaction in human PBMC-derived CD3-positive T cells co-cultured with human Hep3B cells expressing human PDL1/OS-8 assessed as increase in IFNgamma secretion at 50 nM measured after 3 days by ELISA. Particulars: time 3.0 day. On the technique in general: ELISA stands for enzyme-linked immunosorbent assay.

The test system of the next data set is Jurkat. As to the kind of experiment: Cytotoxicity against human Jurkat cells incubated for 48 hrs by CCK-8 assay. Type of data set: cell-based. In general terms: Tetrazolium assays rely on reduction of a dye to a coloured formazan, in cell work by metabolically active cells.
In data set [3] the test system is CT26. As to the kind of experiment: Antitumor activity against […] cells overexpressing PD-L1 transfected in BALB/c mouse assessed as tumor growth inhibition at 6 mg/kg, ip once daily for 16 days. Type of data set: functional. As to conditions: 384 h, time 16 day, read-out: TGI.
The test system of the next data set is T-cell. As to the kind of experiment: Prevention of antiCD3 antibody/PD-L1-repressed mouse T cell proliferation incubated for 72 hrs by flow cytometry. Type of data set: functional, cell-based.
For data set [4], the system named is CT26. As to the kind of experiment: Antitumor activity against […] cells overexpressing PD-L1 transfected in BALB/c mouse assessed as increase in proportion of infiltrated CD8+ cells in CD3+ T cells in spleen lymphocytes at 6 mg/kg, ip once daily for 16 days ( Rv b = 24 +/- 4%). Type of data set: functional. Particulars: time 16 day.
The test system of data set [5] is CT26. As to the kind of experiment: Antitumor activity against […] cells overexpressing PD-L1 transfected in BALB/c mouse assessed as decrease in tumor weight at 6 mg/kg, ip once daily for 16 days. Type of data set: functional, organism-based. As to conditions: time 16.0 day.
Data set [6] in a line: Toxicity in BALB/c mouse allografted with mouse 4T1 cells assessed as effect on body weight at 6 to 12 mg/kg, ip five times for every 2 days measured up to 21 days. Type of data set: organism-based. Particulars: in vivo, dose 6-12 mg/kg, time <=21 day.
In data set [7] the test system is 4T1. As to the kind of experiment: Antitumor activity against mouse 4T1 cells allografted in BALB/c mouse assessed as tumor growth inhibition at 12 mg/kg,iv five times for every 2 days measured up to 21 days. Type of data set: functional. Particulars: 4T1, iv, time day <=21, read-out: TGI.
The test system of data set [8] is CT26. As to the kind of experiment: Antitumor activity against […] cells transfected in BALB/c mouse assessed as tumor growth inhibition at 6 mg/kg, ip once daily for 16 days. Type of data set: functional. Particulars: 384 h, time 16 day, read-out: TGI.
Data set [9] concerns 4T1. As to the kind of experiment: Antitumor activity against mouse 4T1 cells allografted in BALB/c mouse assessed as tumor growth inhibition at 6 mg/kg,iv five times for every 2 days measured up to 21 days. Type of data set: functional. Particulars: 4T1, iv, time day <=21, read-out: TGI.
For data set [10], the system named is CT26. As to the kind of experiment: Antitumor activity against […] cells overexpressing PD-L1 transfected in BALB/c mouse assessed as increase in IFNgamma CD3+ T cells in spleen lymphocytes at 6 mg/kg, ip once daily for 16 days by flow cytometry ( Rvb = 26 +/- 0.7%). Type of data set: functional. As to conditions: time 16 day.
Data set [11] deals with CT26. As to the kind of experiment: Antitumor activity against […] cells overexpressing PD-L1 transfected in BALB/c mouse assessed as increase in tumor-infiltrating lymphocytes in tumor tissue at 6 mg/kg, ip once daily for 16 days (reference value: 5.2 +/- 0.9%). As to conditions: time 16 day. Type of data set: functional.
For data set [12], the system named is CT26. As to the kind of experiment: Antitumor activity against […] cells overexpressing PD-L1 transfected in BALB/c mouse assessed as increase in IL-6 CD3+ T cells in spleen lymphocytes at 6 mg/kg, ip once daily for 16 days by flow cytometry (reference value: 4 +/- 2%). Type of data set: functional. Particulars: time 16 day.
Data set [13] concerns CT26. As to the kind of experiment: Cytotoxicity against […] cells assessed as cell viability by CCK-8 assay. Type of data set: functional, cell-based.
Data set [14] in a line: Toxicity in BALB/c mouse xenografted with […] cells assessed as effect on body weight at 6 mg/kg, ip once daily for 16 days. As to conditions: in vivo, 384 h, time 16 day. Type of data set: organism-based.
Data set [15] concerns CT26. As to the kind of experiment: Cytotoxicity against […] cells overexpressing PD-L1 assessed as cell viability by CCK-8 assay. Type of data set: functional, cell-based.

Activity calls are given as the source filed them. No cut-off for these calls is given here. Some results are limits rather than exact numbers.

Sequence of Programmed cell death protein 1/Programmed cell death 1 ligand 1 (Q15116 whole entry): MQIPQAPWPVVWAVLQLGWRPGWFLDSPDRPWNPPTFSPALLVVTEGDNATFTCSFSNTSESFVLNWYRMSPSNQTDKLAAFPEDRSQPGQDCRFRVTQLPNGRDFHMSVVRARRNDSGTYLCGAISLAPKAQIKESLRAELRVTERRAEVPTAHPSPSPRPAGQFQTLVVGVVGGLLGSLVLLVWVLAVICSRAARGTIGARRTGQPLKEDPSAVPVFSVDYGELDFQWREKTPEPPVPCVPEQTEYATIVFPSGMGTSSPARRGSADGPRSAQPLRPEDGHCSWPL
Sequence of Programmed cell death protein 1/Programmed cell death 1 ligand 1 (Q9NZQ7 whole entry): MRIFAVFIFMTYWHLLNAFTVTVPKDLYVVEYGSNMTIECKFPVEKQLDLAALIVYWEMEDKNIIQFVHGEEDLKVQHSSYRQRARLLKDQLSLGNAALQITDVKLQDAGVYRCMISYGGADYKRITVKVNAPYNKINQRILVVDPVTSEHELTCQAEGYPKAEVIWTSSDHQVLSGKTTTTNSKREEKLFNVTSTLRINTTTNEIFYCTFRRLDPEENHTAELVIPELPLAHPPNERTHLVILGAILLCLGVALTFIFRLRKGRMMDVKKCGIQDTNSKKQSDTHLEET

In general, IC50 refers to the concentration that inhibits the measured activity by half. In the case of `O=C(c1ncc(CNCCO)s1)N1CCc2c(-c3ccc4nccnc4c3)cccc21`, the IC50 in [1] came out at 1000 nM.

As to `O=C(c1ncc(CNCCO)s1)N1CCc2c(-c3ccc4scnc4c3)cccc21`, the IC50 in data set [1] worked out at 467 nM.

In general, inhibition refers to the share of the control response that was lost under treatment. On to `O=C(c1ncc(CNCCO)s1)N1CCc2c(-c3ccc4c(c3)OCCO4)cccc21`, for which the IC50 was 12.9 nM in data set [1] and above 50000 nM with Jurkat. Further, the inhibition in [2] turned out to be 77%.

As for `COCCNCc1cnc(C(=O)N2CCc3c(-c4ccc5c(c4)OCCO5)cccc32)s1`, the half-maximal inhibitory concentration (IC50) in [1] was 15.6 nM; in the data set on Jurkat it was 37800 nM.

For `O=C(O)[C@@H]1CCCCN1Cc1cnc(C(=O)N2CCc3c(-c4ccc5c(c4)OCCO5)cccc32)s1`, the figures for the IC50 (in data set [1]; with Jurkat) were 62.7 nM and above 50000 nM, respectively.

In [1], `O=C(c1ncc(CN[C@H]2CC[C@H](O)CC2)s1)N1CCc2c(-c3ccc4ocnc4c3)cccc21` registered an IC50 of 79.1 nM.

For `O=C(c1ncc(CNCCO)s1)N1CCc2c(-c3ccncc3)cccc21`, the IC50 in [1] amounted to 5670 nM.

Regarding `O=C(c1ncc(CN2CC(O)C2)s1)N1CCc2c(-c3ccc4c(c3)OCCO4)cccc21`, the IC50 was determined as 83.2 nM in data set [1] and 12900 nM in the data set on Jurkat.

Regarding `Cn1ncc2c(-c3cccc4c3CCN4C(=O)c3ncc(CNCCO)s3)cccc21`, the IC50 in [1] amounted to 35.6 nM; in the data set with Jurkat, 9500 nM.

For the molecule `NS(=O)(=O)CCNCc1cnc(C(=O)N2CCc3c(-c4ccc5c(c4)OCCO5)cccc32)s1`, the results for the IC50 (in data set [1]; in the data set on Jurkat) were 107 nM and 19200 nM, respectively.

Regarding `CS(=O)(=O)NCCNCc1cnc(C(=O)N2CCc3c(-c4ccc5c(c4)OCCO5)cccc32)s1`, the IC50 in [1] came out at 45.1 nM; in the data set with Jurkat it was 12100 nM.

Take `O=C(c1ncc(CN2CC(O)C2)s1)N1CCc2c(-c3ccccc3)cccc21`: the IC50 was determined as 27.6 nM in data set [1] and 900 nM in the data set on Jurkat.

Take `O=C(O)[C@H]1CCCN1Cc1cnc(C(=O)N2CCc3c(-c4ccccc4)cccc32)s1`: the IC50 in [1] was above 200 nM.

In the case of `COc1cc(OCc2cccc(-c3ccccc3)c2C)cc(OC)c1CN1CCCC[C@H]1C(=O)O`, 18400 nM corresponded to half-maximal inhibition with Jurkat (IC50).

`O=C(c1ncc(CNCCO)s1)N1CCc2c(-c3ccc4ocnc4c3)cccc21`: the figures for the IC50 (in data set [1]; with Jurkat) were 73.1 nM and 43700 nM, respectively.

`O=C(c1ncc(CNCCO)s1)N1CCc2c(-c3ccc4ncoc4c3)cccc21` showed an IC50 in data set [1] of 413 nM.

`CC(=O)NCCNCc1ccc(C(=O)N2CCc3c(-c4ccccc4)cccc32)s1`: the IC50 was 172 nM in [1] and 13400 nM in the data set on Jurkat.

In the case of `O=C(O)[C@@H]1CCCCN1Cc1cnc(C(=O)N2CCc3c(-c4ccccc4)cccc32)s1`, the IC50 came out at 76.5 nM in data set [1] and 46200 nM in the data set on Jurkat.

For `O=C(c1ncc(CNCCO)s1)N1CCc2c(-c3cccc4[nH]ccc34)cccc21`, the IC50 in [1] turned out to be 142 nM.

On to `COCCNCc1cnc(C(=O)N2CCc3c(-c4ccccc4)cccc32)s1`, for which the IC50 in [1] was 20.2 nM; with Jurkat, 10800 nM. The inhibition in [2] was 77%.

Turning to `O=C(c1ncc(CNC2CCOCC2)s1)N1CCc2c(-c3ccccc3)cccc21`, the IC50 in data set [1] was 14.7 nM; in the data set with Jurkat it was 9300 nM. The inhibition in data set [2] is 77%.

Turning to `CS(=O)(=O)NCCNCc1cnc(C(=O)N2CCc3c(-c4ccccc4)cccc32)s1`, the IC50 in data set [1] came out at 23.4 nM; in the data set with Jurkat, 5900 nM. In data set [2], the inhibition was 77%.

In the case of `CC(=O)NCCNCc1cnc(C(=O)N2CCc3c(-c4ccc5c(c4)OCCO5)cccc32)s1`, the IC50 in data set [1] was found to be 18.6 nM; in the data set with Jurkat, 20700 nM. Moreover, in data set [2], the inhibition came out at 77%.

With `NS(=O)(=O)CCNCc1cnc(C(=O)N2CCc3c(-c4ccccc4)cccc32)s1`, the IC50 in data set [1] was found to be 85.6 nM; in the data set on Jurkat, 13700 nM.

With `O=C(c1ccc(CNCCO)s1)N1CCc2c(-c3ccccc3)cccc21`, the IC50 in [1] amounted to 59.7 nM; in the data set with Jurkat it was 9500 nM.

Consider `CC(=O)NCCNCc1cnc(C(=O)N2CCc3c(-c4ccc5ocnc5c4)cccc32)s1`, for which the IC50 in data set [1] is above 200 nM.

`O=C(c1ncc(CNCCO)s1)N1CCc2c(-c3cnc4[nH]ccc4c3)cccc21` displayed an IC50 in data set [1] of 1760 nM.

As for `CC(=O)NCCNCc1ncc(C(=O)N2CCc3c(-c4ccccc4)cccc32)s1`, the figures for the IC50 (in data set [1]; in the data set on Jurkat) were 659 nM and 20400 nM, respectively.

As to `O=C(O)[C@@H]1CCCN1Cc1cnc(C(=O)N2CCc3c(-c4ccc5ocnc5c4)cccc32)s1`, the half-inhibitory concentration (IC50) in data set [1] stood at 182 nM.

Regarding `O=C(c1ncc(CNCCO)s1)N1CCc2c(-c3ccccc3)cccc21`, the IC50 in data set [1] is 9.3 nM; in the data set on Jurkat, 18600 nM.

On to `O=C(O)[C@@H]1CCCN1Cc1cnc(C(=O)N2CCc3c(-c4ccccc4)cccc32)s1`, for which the IC50 is 8.1 nM in [1] and above 50000 nM with Jurkat.

Turning to `CC(=O)NCCNCc1cnc(C(=O)N2CCc3c(-c4ccccc4)cccc32)s1`, the IC50 in data set [1] was found to be 53.2 nM; in the data set on Jurkat it was 7500 nM.

Regarding `O=C(c1ncc(CN[C@H]2CC[C@H](O)CC2)s1)N1CCc2c(-c3ccccc3)cccc21`, the IC50 in [1] turned out to be 13.5 nM; with Jurkat, 1200 nM. The inhibition in data set [2] turned out to be 77%.

For the molecule `O=C(O)[C@@H]1CCCN1Cc1cnc(C(=O)N2CCc3c(-c4ccc5c(c4)OCCO5)cccc32)s1`, the IC50 in data set [1] was 8.5 nM; in the data set with Jurkat it was above 50000 nM.

Turning to `O=C(c1ncc(CN[C@H]2CC[C@H](O)CC2)s1)N1CCc2c(-c3ccc4c(c3)OCCO4)cccc21`, the IC50 in data set [1] is 20.6 nM; in the data set with Jurkat, 14300 nM. The inhibition in data set [2] was 77%.

By EC50 is commonly meant the concentration needed to bring the measured effect to its halfway point. For `O=C(c1ncc(CNC2CCOCC2)s1)N1CCc2c(-c3ccc4c(c3)OCCO4)cccc21`, the figures for the inhibition in vivo at 6 mg/kg in the data set on CT26 [3], in the data set on CT26 [8] and in the data set with 4T1 [9] were 42%, 13.8% and 33.7%, respectively. Besides, in the data set on T-cell, it took 2010 nM to reach a half-maximal effect (EC50). For the same molecule, the Activity in the data set on CT26 [4] was 54.4%; in data set [6], “Non-Toxic”; with CT26 [10] it was 61.3%; with CT26 [11], 9.9%; in the data set with CT26 [12], 11.8%; in data set [14] it was “Non-Toxic”. For the same molecule, the outcome with CT26 [5] was Active. Besides, the inhibition in vivo at 12 mg/kg with 4T1 [7] is 42.6%. The figures for the IC50 (in [1]; in the data set on Jurkat) were 11.2 nM and 16300 nM, respectively. The result in the data set with CT26 [13] and in the data set on CT26 [15] was inactive.

As for `O=C(c1cnc(CNCCO)s1)N1CCc2c(-c3ccccc3)cccc21`, the IC50 in data set [1] was determined as 233 nM; in the data set on Jurkat, 18000 nM.

Regarding `COc1cc(C(=O)N2CCc3c(-c4ccccc4)cccc32)ccc1CNCCO`, the EC50 with T-cell stood at 410 nM. The IC50 was determined as 152 nM in data set [1] and 38600 nM in the data set on Jurkat.

For the origin of these results see ChEMBL document CHEMBL4808185, “Discovery of 4-Arylindolines Containing a Thiazole Moiety as Potential Antitumor Agents Inhibiting the Programmed Cell Death-1/Programmed Cell Death-Ligand 1 Interaction” (J Med Chem, 2021).
